Experimental data: the NIST ThermoML archive (doi:10.1016/j.jct.2019.04.005)
Numbers after ± are expanded uncertainties.

What was measured:
[1] = refractive index (Na D-line) (dimensionless); conditions: 298.2 K; 101.33 kPa; Liquid; Standard Abbe refractometry
[2] = 298.2 K; 101.33 kPa; Liquid; Vibrating tube method
[3] = refractive index (Na D-line) (dimensionless); wn = mass fraction of the nth substance listed; conditions: 298.2 K; 100 kPa; Liquid; Standard Abbe refractometry; w1 = 0.85
[4] = wn = mass fraction of the nth substance listed; conditions: 298.2 K; 100 kPa; Liquid; Vibrating tube method; w1 = 0.85

Structure (SMILES)	refractive index [1]	mass density [2] [kg/m3]	refractive index [3]	mass density [4] [kg/m3]
CC(C)CC(C)O (configuration not stated) [4-methyl-2-pentanol]	1.4101 ± 0.003	803.77 ± 2.1		
CCCC(C)O (configuration not stated) [pentan-2-ol]	1.4049 ± 0.003	805.3 ± 2.1		
O=P(O)(O)O [phosphoric acid] + O			1.432 ± 0.003	1682.7 ± 2.2
O [water]	1.3325 ± 0.003			
